According to patent publication US20250332178A1, “METHODS OF TREATING MYCOBACTERIAL INFECTIONS USING TETRACYCLINE COMPOUNDS” (priority 2018, published 2025):
In brackets after ≈: the same amount, converted by molar mass. Read-outs that look alike come from different tables or passages of the source.

What was measured:
[1] = system: rapid-growing mycobacteria (RGM) isolates; assay: MIC (CLSI broth dilution), all RGM isolates; assay type: cell-based, nontuberculous mycobacteria
M. immunogenum group = assay: MIC (CLSI broth dilution), RGM isolates; assay type: cell-based
M. mucogenium group = assay: MIC (CLSI broth dilution), RGM isolates; assay type: cell-based
M. abscessus complex = assay: MIC (CLSI broth dilution), RGM isolates; assay type: cell-based; conditions: Mycobacteroides abscessus

SMILES: CC[C@H]1OC(=O)[C@H](C)[C@@H](O[C@H]2C[C@@](C)(OC)[C@@H](O)[C@H](C)O2)[C@H](C)[C@@H](O[C@@H]2O[C@H](C)C[C@H](N(C)C)[C@H]2O)[C@](C)(OC)C[C@@H](C)C(=O)[C@H](C)[C@@H](O)[C@]1(C)O [clarithromycin]
- MIC50 ([1]; 336 h, all RGM isolates, extended reading, up to/including 14 days, read-out: MIC50, CLA Extended): 2 µg/mL (≈ 2.67 µM)
- MIC90 ([1]; 336 h, all RGM isolates, extended reading, up to/including 14 days, read-out: MIC90, CLA Extended): > 32 µg/mL
- MIC50 ([1]; all 50 RGM isolates, initial reading, generally 3-4 days, read-out: MIC50, CLA Initial): 0.25 µg/mL (≈ 0.334 µM)
- MIC90 ([1]; all 50 RGM isolates, initial reading, generally 3-4 days, read-out: MIC90, CLA Initial): 2 µg/mL (≈ 2.67 µM)
- MIC (M. immunogenum group; 336 h, isolate 35, M. immunogenum, extended reading, up to/including 14 days, read-out: MIC, CLA Extended): 1 µg/mL (≈ 1.34 µM)
- MIC (M. immunogenum group; 336 h, isolate 36, M. immunogenum, extended reading, up to/including 14 days, read-out: MIC, CLA Extended): 2 µg/mL (≈ 2.67 µM)
- MIC (M. immunogenum group; 336 h, isolate 37, M. immunogenum, extended reading, up to/including 14 days, read-out: MIC, CLA Extended): 2 µg/mL (≈ 2.67 µM)
- MIC (M. immunogenum group; 336 h, isolate 38, M. immunogenum, extended reading, up to/including 14 days, read-out: MIC, CLA Extended): 2 µg/mL (≈ 2.67 µM)
- MIC (M. immunogenum group; isolate 35, M. immunogenum, initial reading, generally 3-4 days, read-out: MIC, CLA Initial): 0.25 µg/mL (≈ 0.334 µM)
- MIC (M. immunogenum group; isolate 36, M. immunogenum, initial reading, generally 3-4 days, read-out: MIC, CLA Initial): 0.12 µg/mL (≈ 0.16 µM)
- MIC (M. immunogenum group; isolate 37, M. immunogenum, initial reading, generally 3-4 days, read-out: MIC, CLA Initial): 1 µg/mL (≈ 1.34 µM)
- MIC (M. immunogenum group; isolate 38, M. immunogenum, initial reading, generally 3-4 days, read-out: MIC, CLA Initial): 0.5 µg/mL (≈ 0.668 µM)
- MIC (M. mucogenium group; 336 h, isolate 39, M. mucogenicum, extended reading, up to/including 14 days, read-out: MIC, CLA Extended): 0.12 µg/mL (≈ 0.16 µM)
- MIC (M. mucogenium group; 336 h, isolate 40, M. mucogenicum, extended reading, up to/including 14 days, read-out: MIC, CLA Extended): 1 µg/mL (≈ 1.34 µM)
- MIC (M. mucogenium group; 336 h, isolate 41, M. mucogenicum, extended reading, up to/including 14 days, read-out: MIC, CLA Extended): 1 µg/mL (≈ 1.34 µM)
- MIC (M. mucogenium group; 336 h, isolate 42, M. mucogenicum, extended reading, up to/including 14 days, read-out: MIC, CLA Extended): 0.12 µg/mL (≈ 0.16 µM)
- MIC (M. mucogenium group; 336 h, isolate 43, M. phocaicum, extended reading, up to/including 14 days, read-out: MIC, CLA Extended): 1 µg/mL (≈ 1.34 µM)
- MIC (M. mucogenium group; 336 h, isolate 44, M. phocaicum, extended reading, up to/including 14 days, read-out: MIC, CLA Extended): 1 µg/mL (≈ 1.34 µM)
- MIC (M. mucogenium group; 336 h, isolate 45, M. phocaicum, extended reading, up to/including 14 days, read-out: MIC, CLA Extended): 1 µg/mL (≈ 1.34 µM)
- MIC (M. mucogenium group; 336 h, isolate 46, M. phocaicum, extended reading, up to/including 14 days, read-out: MIC, CLA Extended): 0.12 µg/mL (≈ 0.16 µM)
- MIC (M. mucogenium group; 336 h, isolate 47, M. phocaicum, extended reading, up to/including 14 days, read-out: MIC, CLA Extended): 0.5 µg/mL (≈ 0.668 µM)
- MIC (M. mucogenium group; 336 h, isolate 48, M. phocaicum, extended reading, up to/including 14 days, read-out: MIC, CLA Extended): 0.5 µg/mL (≈ 0.668 µM)
- MIC (M. mucogenium group; isolate 39, M. mucogenicum, initial reading, generally 3-4 days, read-out: MIC, CLA Initial): ≤ 0.06 µg/mL
- MIC (M. mucogenium group; isolate 40, M. mucogenicum, initial reading, generally 3-4 days, read-out: MIC, CLA Initial): 0.25 µg/mL (≈ 0.334 µM)
- MIC (M. mucogenium group; isolate 41, M. mucogenicum, initial reading, generally 3-4 days, read-out: MIC, CLA Initial): 0.5 µg/mL (≈ 0.668 µM)
- MIC (M. mucogenium group; isolate 42, M. mucogenicum, initial reading, generally 3-4 days, read-out: MIC, CLA Initial): ≤ 0.06 µg/mL
- MIC (M. mucogenium group; isolate 43, M. phocaicum, initial reading, generally 3-4 days, read-out: MIC, CLA Initial): 0.25 µg/mL (≈ 0.334 µM)
- MIC (M. mucogenium group; isolate 44, M. phocaicum, initial reading, generally 3-4 days, read-out: MIC, CLA Initial): 0.25 µg/mL (≈ 0.334 µM)
- MIC (M. mucogenium group; isolate 45, M. phocaicum, initial reading, generally 3-4 days, read-out: MIC, CLA Initial): 0.25 µg/mL (≈ 0.334 µM)
- MIC (M. mucogenium group; isolate 46, M. phocaicum, initial reading, generally 3-4 days, read-out: MIC, CLA Initial): ≤ 0.06 µg/mL
- MIC (M. mucogenium group; isolate 47, M. phocaicum, initial reading, generally 3-4 days, read-out: MIC, CLA Initial): 0.25 µg/mL (≈ 0.334 µM)
- MIC (M. mucogenium group; isolate 48, M. phocaicum, initial reading, generally 3-4 days, read-out: MIC, CLA Initial): 0.12 µg/mL (≈ 0.16 µM)
- MIC (M. abscessus complex; 168 h, isolate 12, Type 6 abscessus, extended reading (7 d), read-out: MIC, CLA Extended): > 32 µg/mL
- MIC (M. abscessus complex; 240 h, isolate 7, Type 1 abscessus, extended reading (10 d), read-out: MIC, CLA Extended): > 32 µg/mL
- MIC (M. abscessus complex; 240 h, isolate 9, Type 1 abscessus, extended reading (10 d), read-out: MIC, CLA Extended): > 32 µg/mL
- MIC (M. abscessus complex; 240 h, isolate 11, Type 6 abscessus, extended reading (10 d), read-out: MIC, CLA Extended): > 32 µg/mL
- MIC (M. abscessus complex; 240 h, isolate 15, Type 7 abscessus, extended reading (10 d), read-out: MIC, CLA Extended): > 32 µg/mL
- MIC (M. abscessus complex; 240 h, isolate 16, Type 7 abscessus, extended reading (10 d), read-out: MIC, CLA Extended): > 32 µg/mL
- MIC (M. abscessus complex; 240 h, isolate 17, Type 8 abscessus, extended reading (10 d), read-out: MIC, CLA Extended): > 32 µg/mL
- MIC (M. abscessus complex; 264 h, isolate 8, Type 1 abscessus, extended reading (11 d), read-out: MIC, CLA Extended): > 32 µg/mL
- MIC (M. abscessus complex; 264 h, isolate 10, Type 1 abscessus, extended reading (11 d), read-out: MIC, CLA Extended): 32 µg/mL (≈ 42.8 µM)
- MIC (M. abscessus complex; 264 h, isolate 13, Type 6 abscessus, extended reading (11 d), read-out: MIC, CLA Extended): > 32 µg/mL
- MIC (M. abscessus complex; 336 h, isolate 1, MAB30, extended reading, up to/including 14 days, read-out: MIC, CLA Extended): 1 µg/mL (≈ 1.34 µM)
- MIC (M. abscessus complex; 336 h, isolate 2, MAB30, extended reading, up to/including 14 days, read-out: MIC, CLA Extended): 2 µg/mL (≈ 2.67 µM)
- MIC (M. abscessus complex; 336 h, isolate 3, MAB30, extended reading, up to/including 14 days, read-out: MIC, CLA Extended): 2 µg/mL (≈ 2.67 µM)
- MIC (M. abscessus complex; 336 h, isolate 4, massiliense, extended reading, up to/including 14 days, read-out: MIC, CLA Extended): 2 µg/mL (≈ 2.67 µM)
- MIC (M. abscessus complex; 336 h, isolate 5, massiliense/subsp. abs hybrid, extended reading, up to/including 14 days, read-out: MIC, CLA Extended): ≤ 0.06 µg/mL
- MIC (M. abscessus complex; 336 h, isolate 14, Type 6 abscessus, extended reading (14 d), read-out: MIC, CLA Extended): > 32 µg/mL
- MIC (M. abscessus complex; isolate 1, MAB30, initial reading, generally 3-4 days, read-out: MIC, CLA Initial): ≤ 0.06 µg/mL
- MIC (M. abscessus complex; isolate 2, MAB30, initial reading, generally 3-4 days, read-out: MIC, CLA Initial): ≤ 0.06 µg/mL
- MIC (M. abscessus complex; isolate 3, MAB30, initial reading, generally 3-4 days, read-out: MIC, CLA Initial): 0.5 µg/mL (≈ 0.668 µM)
